{
  "source": "paper PMC8585037",
  "about": "(International Journal of Molecular Sciences, 2021)",
  "key": {"[1]": {"test_system": "vesicular DA uptake", "design": "method as in PMID 16835371", "details": "cited from earlier work"}, "[2]": {"biological_target": "T1, DAT (Rattus norvegicus, UniProt P23977)", "T1 construct": "Synaptosomes from rat cerebrum were isolated as described by Bogen et al; from tissue; host or cells: rat cerebrum synaptosomes", "T1 sequence (P23977 whole entry)": "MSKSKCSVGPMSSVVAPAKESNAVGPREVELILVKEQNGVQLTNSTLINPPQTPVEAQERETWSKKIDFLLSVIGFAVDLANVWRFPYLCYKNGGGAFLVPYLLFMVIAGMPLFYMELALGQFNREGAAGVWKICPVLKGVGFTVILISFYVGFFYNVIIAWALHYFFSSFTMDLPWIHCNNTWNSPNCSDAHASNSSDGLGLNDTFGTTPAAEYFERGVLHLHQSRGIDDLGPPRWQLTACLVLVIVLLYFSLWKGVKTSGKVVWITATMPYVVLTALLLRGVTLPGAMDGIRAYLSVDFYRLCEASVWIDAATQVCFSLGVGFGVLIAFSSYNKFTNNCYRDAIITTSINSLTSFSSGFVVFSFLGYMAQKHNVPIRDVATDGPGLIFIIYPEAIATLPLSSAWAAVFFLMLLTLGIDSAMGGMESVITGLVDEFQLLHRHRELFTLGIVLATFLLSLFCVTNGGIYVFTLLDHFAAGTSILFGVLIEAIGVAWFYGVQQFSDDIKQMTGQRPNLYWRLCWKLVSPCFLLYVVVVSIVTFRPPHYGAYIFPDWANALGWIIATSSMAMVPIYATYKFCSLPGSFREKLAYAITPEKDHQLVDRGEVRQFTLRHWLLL", "test": "Synaptosomal uptake of [3H]DA in rat brain synaptosomes", "type": "biochemical"}, "[3]": {"test_system": "DA, 3-MT, DOPAC, 5-HT and 5-HIAA in dorsal striatum and nucleus accumbens", "test": "Neurotransmitter and metabolite concentrations in post-mortem mouse brain tissue", "type": "in vivo", "details": "20 min after 3.75 mg/kg i.p."}, "[4]": {"test_system": "C57BL/6J mice", "test": "Locomotor activity studies in mice", "type": "in vivo, mouse", "details": "for dose giving maximal locomotor effect (Emax): i.p."}, "[5]": {"test": "Pharmacokinetic studies: drug concentrations in mouse blood and brain tissue", "details": "for half-life / Cmax: C57BL/6, mouse, ip"}, "[6]": {"biological_target": "T2, SERT (Rattus norvegicus, UniProt P31652)", "T2 construct": "Synaptosomes from rat cerebrum were isolated as described by Bogen et al; from tissue; host or cells: rat cerebrum synaptosomes", "T2 sequence (P31652 whole entry)": "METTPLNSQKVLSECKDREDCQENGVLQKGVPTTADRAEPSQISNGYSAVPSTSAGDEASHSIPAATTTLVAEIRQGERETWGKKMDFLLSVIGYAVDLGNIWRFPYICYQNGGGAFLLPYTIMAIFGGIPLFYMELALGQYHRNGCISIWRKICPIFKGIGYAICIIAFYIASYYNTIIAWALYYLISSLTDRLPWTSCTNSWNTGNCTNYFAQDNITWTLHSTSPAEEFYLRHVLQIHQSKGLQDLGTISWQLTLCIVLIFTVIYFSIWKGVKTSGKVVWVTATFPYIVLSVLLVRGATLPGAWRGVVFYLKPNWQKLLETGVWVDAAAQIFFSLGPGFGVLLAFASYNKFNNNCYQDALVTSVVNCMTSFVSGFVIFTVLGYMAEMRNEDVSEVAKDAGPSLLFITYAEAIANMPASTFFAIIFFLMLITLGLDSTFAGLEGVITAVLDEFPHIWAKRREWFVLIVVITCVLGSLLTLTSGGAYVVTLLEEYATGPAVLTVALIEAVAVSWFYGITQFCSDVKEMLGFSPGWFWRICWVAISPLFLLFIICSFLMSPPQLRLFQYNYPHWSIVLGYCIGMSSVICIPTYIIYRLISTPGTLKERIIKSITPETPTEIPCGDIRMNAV", "test": "Synaptosomal uptake of [3H]5-HT in rat brain synaptosomes", "type": "biochemical", "details": "IC50 Synaptosomes [3H]5-HT Uptake via SERT"}, "[7]": {"biological_target": "T3, VMAT2 (Rattus norvegicus, UniProt Q01827)", "T3 construct": "Synaptic vesicles from rat cerebrum were isolated as described previously; from tissue; host or cells: rat cerebrum synaptic vesicles", "T3 sequence (Q01827 whole entry)": "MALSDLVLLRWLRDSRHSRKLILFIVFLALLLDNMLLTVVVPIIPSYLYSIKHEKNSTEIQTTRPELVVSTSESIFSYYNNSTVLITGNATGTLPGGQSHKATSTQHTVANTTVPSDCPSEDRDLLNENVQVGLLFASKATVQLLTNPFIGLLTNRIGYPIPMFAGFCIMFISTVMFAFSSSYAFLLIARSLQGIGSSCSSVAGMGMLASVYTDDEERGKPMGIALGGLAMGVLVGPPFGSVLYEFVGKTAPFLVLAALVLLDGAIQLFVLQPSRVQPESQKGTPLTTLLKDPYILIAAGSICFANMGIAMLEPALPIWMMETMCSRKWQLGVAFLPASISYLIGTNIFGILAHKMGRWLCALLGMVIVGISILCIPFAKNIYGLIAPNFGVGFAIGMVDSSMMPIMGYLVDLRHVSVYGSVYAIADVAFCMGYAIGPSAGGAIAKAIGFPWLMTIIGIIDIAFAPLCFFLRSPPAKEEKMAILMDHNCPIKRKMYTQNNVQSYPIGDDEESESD", "test": "Vesicular uptake of [3H]DA, [3H]NE and [3H]5-HT in rat brain synaptic vesicles", "type": "biochemical"}, "[8]": {"test_system": "CD-1 mice", "design": "method as in PMID 32356113, PMID 33770233", "details": "i.p.; cited from earlier work"}, "[9]": {"biological_target": "T4, NET (Rattus norvegicus, UniProt Q63380)", "T4 construct": "Synaptosomes from rat cerebrum were isolated as described by Bogen et al; from tissue; host or cells: rat cerebrum synaptosomes", "T4 sequence (Q63380 1-617)": "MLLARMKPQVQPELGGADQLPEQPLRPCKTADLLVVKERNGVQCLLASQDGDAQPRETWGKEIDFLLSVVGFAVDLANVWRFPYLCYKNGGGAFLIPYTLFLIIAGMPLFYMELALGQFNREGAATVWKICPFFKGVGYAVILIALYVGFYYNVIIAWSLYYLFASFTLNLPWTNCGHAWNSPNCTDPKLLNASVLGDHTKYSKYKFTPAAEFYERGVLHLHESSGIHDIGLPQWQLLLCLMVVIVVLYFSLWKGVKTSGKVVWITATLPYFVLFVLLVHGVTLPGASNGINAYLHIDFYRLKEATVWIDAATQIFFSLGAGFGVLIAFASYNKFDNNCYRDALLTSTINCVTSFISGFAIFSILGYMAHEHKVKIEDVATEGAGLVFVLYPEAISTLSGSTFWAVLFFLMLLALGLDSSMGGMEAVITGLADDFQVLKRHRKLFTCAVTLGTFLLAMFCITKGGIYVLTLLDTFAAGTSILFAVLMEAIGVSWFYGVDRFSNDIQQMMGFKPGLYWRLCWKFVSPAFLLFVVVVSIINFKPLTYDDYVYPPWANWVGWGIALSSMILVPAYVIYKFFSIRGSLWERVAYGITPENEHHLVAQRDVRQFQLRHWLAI", "test": "Synaptosomal uptake of [3H]NE in rat brain synaptosomes", "type": "biochemical"}, "[10]": {"test_system": "CD-1 mice", "details": "chronic exposure, 10 mg/kg/day for 30 days; cited from earlier work"}, "[11]": {"test_system": "Sprague-Dawley rats", "design": "method as in PMID 27265782", "details": "i.p.; cited from earlier work"}, "[12]": {"details": "cited from earlier work"}, "[13]": {"details": "mouse, single i.p. injection of 3.75 mg/kg methamphetamine"}},
  "note": "Values joined by “and” are separate entries in the source; they are usually repeats but may differ in a detail not shown here. Equal values may be shown once.",
  "data": [
    {"smiles": "CN[C@@H](C)Cc1ccccc1", "note": "[methamphetamine]", "values": [
      {"measurement": "IC50", "setting": "[1]", "value": 9.1, "unit": "µM"},
      {"measurement": "IC50", "setting": "[2]", "value": "0.14 ± 0.01", "unit": "µM"},
      {"measurement": "3-MT concentration", "setting": "[3]; Dorsal Striatum", "value": "3.6 ± 0.7", "unit": "nmol/g"},
      {"measurement": "5-HT concentration", "setting": "[3]; Dorsal Striatum", "value": "2.0 ± 0.3", "unit": "nmol/g"},
      {"measurement": "DA concentration", "setting": "[3]; Dorsal Striatum", "value": "107.4 ± 21.1", "unit": "nmol/g"},
      {"measurement": "3-MT concentration", "setting": "[3]; Nucleus Accumbens", "value": "3.5 ± 1.0", "unit": "nmol/g"},
      {"measurement": "5-HT concentration", "setting": "[3]; Nucleus Accumbens", "value": "6.1 ± 0.8", "unit": "nmol/g"},
      {"measurement": "DA concentration", "setting": "[3]; Nucleus Accumbens", "value": "82.2 ± 10.5", "unit": "nmol/g"},
      {"measurement": "Emax, maximum run distance per 5 min interval", "setting": "[4]; 3.75 mg/kg i.p., C57BL/6 mice", "value": "1312 ± 126", "unit": "cm"},
      {"measurement": "maximum total locomotor activity (total run distance during 240 min session)", "setting": "[4]; 3.75 mg/kg i.p., C57BL/6 mice", "value": "24,401 ± 2043 cm"},
      {"measurement": "dose giving maximal locomotor effect (Emax)", "setting": "[4]; C57BL/6 mice", "value": 3.75, "unit": "mg/kg"},
      {"measurement": "half-life", "setting": "[5]; brain, 3.75 mg/kg", "value": "~45", "unit": "min"},
      {"measurement": "Cmax", "setting": "[5]; brain, 3.75 mg/kg, Cmax in brain, mouse, single i.p. injection of 3.75 mg/kg methamphetamine", "value": "4110 ± 150", "unit": "ng/g"},
      {"measurement": "half-life", "setting": "[5]; whole blood, 3.75 mg/kg", "value": "~36", "unit": "min"},
      {"measurement": "Cmax", "setting": "[5]; whole blood, 3.75 mg/kg, Cmax in blood, mouse, single i.p. injection of 3.75 mg/kg methamphetamine", "value": "910 ± 80", "unit": "ng/mL"},
      {"measurement": "time of Cmax in blood", "setting": "[5]; [13]", "value": 5, "unit": "min"},
      {"measurement": "time of Cmax in brain", "setting": "[5]; [13]", "value": 20, "unit": "min"}
    ]},
    {"smiles": "CNC(C)Cc1cccs1", "note": "(stereo not shown) [methiopropamine, 1-(thiophen-2-yl)-2-methylaminopropane]", "values": [
      {"measurement": "IC50", "setting": "[6]", "value": "25.1 ± 2.91", "unit": "µM"},
      {"measurement": "IC50", "setting": "[7]; IC50 Synaptic Vesicles [3H]5-HT Uptake via VMAT2, rat brain synaptic vesicles", "value": "48.9 ± 5.02", "unit": "µM"},
      {"measurement": "IC50", "setting": "[7]; IC50 Synaptic Vesicles [3H]DA Uptake via VMAT2, rat brain synaptic vesicles", "value": 33.8, "unit": "µM"},
      {"measurement": "IC50", "setting": "[7]; IC50 Synaptic Vesicles [3H]NE Uptake via VMAT2, rat brain synaptic vesicles", "value": "47 ± 8.01", "unit": "µM"},
      {"measurement": "IC50", "setting": "[7]; IC50 vesicular uptake of DA, NE and 5-HT (span over the three substrates), rat brain synaptic vesicles", "value": "34 to 49 µM and > 25 µM and 10 to 50 µM"},
      {"measurement": "dose with significant increase in locomotor activity", "setting": "[8]", "value": 10, "unit": "mg/kg"},
      {"measurement": "IC50", "setting": "[2]", "value": "0.74 ± 0.09", "unit": "µM"},
      {"measurement": "potency, fold weaker compared with methamphetamine", "setting": "[2]; DA, NE and 5-HT transporters", "value": "approximately 5 ×"},
      {"measurement": "IC50", "setting": "[9]", "value": "0.47 ± 0.06", "unit": "µM"},
      {"measurement": "peak effect (Emax), maximum run distance per 5 min interval", "setting": "[4]; […] i.p., C57BL/6 mice", "value": "2037 ± 127", "unit": "cm/5 min"},
      {"measurement": "dose giving maximal locomotor effect (Emax)", "setting": "[4]; C57BL/6 mice", "value": 12.5, "unit": "mg/kg"},
      {"measurement": "sudden deaths", "setting": "[4]; mouse, in vivo", "value": "did not observe any sudden deaths"},
      {"measurement": "brain:blood ratios, comparison of the two drugs", "setting": "[5]; 5, 30 and 60 min after injection, […] methiopropamine vs 3.75 mg/kg methamphetamine, p > 0.05", "value": "no significant differences"},
      {"measurement": "half-life", "setting": "[5]; blood and brain, […]", "value": "~30", "unit": "min"},
      {"measurement": "half-life", "setting": "[5]; brain, […]", "value": "~35", "unit": "min"},
      {"measurement": "half-life", "setting": "[5]; whole blood, […]", "value": "~31", "unit": "min"},
      {"measurement": "sudden deaths", "setting": "[10]", "value": 70, "unit": "% deaths"},
      {"measurement": "dose with significant increase in locomotor activity", "setting": "[11]", "value": 5, "unit": "mg/kg"},
      {"measurement": "peripheral postmortem blood concentration", "setting": "[12]; fatal case of isolated methiopropamine use", "value": 38, "unit": "µg/mL"},
      {"measurement": "blood concentration", "setting": "[12]; fatal intoxication case", "value": 245, "unit": "µM"}
    ]}
  ]
}
